In patent publication US20050277586A1, “Peptide chemically modified with polyethylene glycol” (priority 2002, published 2005):
No end group written: not given here.

Tests used:
[1] = Measurement of CD spectrum with and without SDS; assay type: physicochemical; details: 10 mM phosphate buffer pH 7, 50 mM NaCl, 35° C.; for α-helix structure in CD spectroscopy in the presence of SDS: 5 mM SDS
Protocol: The peptide dissolved in 10 mM phosphate buffer (pH=7) containing 50 mM NaCl was evaluated for its CD spectrum in the presence and in the absence of 5 mM SDS by using a circular dichroism spectrophotometer (J-500A, manufactured by JASCO). The cell length was 1 mm. The measurement was conducted at 35° C. for 6 times in total.

[2] = test system: Vero cell, T24 cell, A549 cell; test: Nucleic acid-introducing ability, luciferase-expressing plasmid (procedure of Example 9); assay type: cell-based
Source text: A cell line established from monkey kidney (Vero cell) and a human bladder cancer cell (T24 cell) purchased from American Type Culture Collection (ATCC) and human lung cancer cell (A549 cell) purchased from Dainippon Pharmaceutical were inoculated on a 24 well culture plate (manufactured by NALGEN NUNC) at 1×10^5 cells/well. Vero cell and A549 cell were cultivated in DMEM (manufactured by Life Technologies Oriental) supplemented with 10% fetal bovine serum (hereinafter referred to as FBS, manufactured by NICHIREI), and T24 cell was cultivated in McCoy's 5a (manufactured by Life Technologies Oriental) supplemented with 10% FBS in 5% CO2 atmosphere at 37° C. for 24 hours. After removing the medium, opti-MEM (manufactured by Life Technologies Oriental) prepared to have the concentration of the luciferase-expressing plasmid prepared in Example 7 of 1 μg/mL and the concentration of the peptide prepared in Example 1 of 1.25, 2.5, or 5 μM was added, and the cells were cultivated for 5 hours. Next, in the case of Vero cell and A549 cell, the culture medium was replaced with DMEM supplemented with 10% FBS, and in the case of T24 cell, the medium was replaced with McCoy's 5a supplemented with 10% FBS, and cultivation was continued in 5% CO2 atmosphere and at 37° C. for another 24 hours. The luciferase activity expressed in the cell was then measured by the method instructed in luciferase assay system (manufactured by Promega). To be more specific, the cells were washed with phosphate-buffered saline (hereinafter referred to as PBS, manufactured by SIGMA), and the cells were lyzed with Passive Lysis Buffer attached to the kit.
20 μL of this cell lysate and 100 μL of the Luciferase Assay Reagent II attached to the kit was added to a fluorescence-measuring plate (Microlite™ 1 plate, manufactured by Dynatech), and after mixing, fluorescence was measured for 1 second by using a multilabel counter (ARVO™ SY1420 MULTILABEL COUNTER, manufactured by Wallac Beltold.
Concentration of the protein in the cell lysate was measured by mixing 8 μL of the cell lysate and 200 μL of the protein assay solution (manufactured by Biorad) with 792 μL of ultrapure water in a disposable cuvette (UV fluorescent cuvette A204X, manufactured by Funakoshi), allowing the mixture to stand for 5 minutes at room temperature, and measuring the absorption at 595 nm with a spectrophotometer (DU640, manufactured by Beckman). Bovine serum albumin (BSA) was used for the standard protein. By using the thus obtained results, count per 1 second per 1 mg of protein of the cell lysate was calculated to thereby use the count as the luciferase activity, and the highest count in the three conditions of different peptide concentration was designated the gene-introducing ability of the peptide.

[3] = Affinity for phosphatidyl serine by surface plasmon resonance (Biacore 2000); assay type: binding; details: in the presence of 0.1 mg/mL BSA
Protocol: The specific affinity of the peptide for phosphatidyl serine was evaluated by means of surface plasmon resonance (SPR) using Biacore 2000 (manufactured by Biacore). To be more specific, phosphatidyl choline was immobilized on flow cell 1, and 50% of phosphatidyl serine and 50% of phosphatidyl choline were immobilized on flow cell 2 of HPA chip (manufactured by Biacore), and ability of the peptide to bind to the phospholipid was evaluated in the presence of 0.1 mg/mL BSA to thereby evaluate the affinity.

[4] = test system: Lewis lung carcinoma cell; test: In vivo HSV-tk gene introduction plus GCV, survival of mice with Lewis lung carcinoma in abdominal cavity; set-up: species or system mouse; details: GCV only, 30 mg/kg/day
Protocol: To be more specific, 1×10^5 Lewis lung carcinoma cells were transplanted in the abdominal cavity of a C57BL/6 mouse (purchased from Charles River JAPAN), and a mixture of 10 μg of the HSV-tk-expressing plasmid prepared in Example 7 and 40 nmol of the peptide of SEQ ID NO: 16 prepared in Example 1 was administered in the abdominal cavity after the cell transplantation. The mouse was also administered with GCV at a dose of 30 mg/kg/day from 1st to 8th day after the transplantation.

[5] = Toxicity of the peptide, tail vein administration; assay type: in vivo; details: female BALB/c mouse, 5 mg/kg
Protocol: The peptide used in the present invention was administered to a mouse from its tail vein to thereby evaluate its toxicity. The mouse used was a female BALB/c mouse of 5 week old, and the peptide was used at a dose of 5 mg/kg.

Vero cell = test: Storage stability of the complex with nucleic acid (gene-introducing activity after 4° C., 1 week); assay type: cell-based, monkey; details: complex with luciferase plasmid stored at 4° C. for 1 week
Protocol: Luciferase-expressing plasmid was introduced in Vero cell in accordance with the procedure described in Example 9 by using the opti-MEM prepared to have a concentration of the luciferase-expressing plasmid prepared in Example 7 of 2 μg/mL and a concentration of the peptide of SEQ ID NO: 4 prepared in Example 1 of 5 μM to thereby measure the luciferase activity. The opti-MEM containing plasmid and peptide used were the one which had been prepared immediately before the gene introduction, and the one which had been prepared 1 week (7 days) in advance and stored at 4° C.
For the purpose of reference, gene-introducing activity of Lipofectin and LipofectAMINE 2000 (manufactured by Life Technologies Oriental), which are commercially available plasmid-introducing agents, were also evaluated by mixing these reagent with luciferase-expressing plasmid in accordance with the attached protocol, and evaluating their gene-introducing activity after storing at 4° C. for 1 week.

For “SEQ ID NO: 25: same amino acid composition as SEQ ID NO: 1 but with an utterly random amino acid sequence (TIRYRPSHQIRLRAVLHLWIRYRPSHQIRLRAVLHWS) [reference compound]”, the “α-helix structure in CD spectroscopy in the presence of SDS” value [1] was “no α-helix structure is found even in the presence of SDS”, the “Ability of introducing the nucleic acid into a cell” value ([2]; procedure of Example 9) was “neither the nucleic acid-introducing ability” and the “Binding to flow cell 2 (50% phosphatidyl serine, 50% phosphatidyl choline) and flow cell 1 (phosphatidyl choline)” value [3] was “showed no binding”.

Nc1nc(O)c2ncn(COC(CO)CO)c2n1 [GCV, ganciclovir] showed an Average survival period [4] of 14 days.

For “LARLLARLLARLLRALLRALLRAL [SEQ ID NO: 27]”, the “Toxicity after tail vein administration” value [5] was “died immediately after the administration”.

In the case of “SEQ ID NO: 4: SEQ ID NO: 1 with one or two locations in the 18 amino acid sequence substituted (TRYLRIHPRSWLHQIALRLRYLRIHPRSWLHQIALRS)”, the “α-helix structure in CD spectroscopy in the presence of SDS” value [1] is reported as “are in α-helix structure in the presence of SDS”, the “α-helix structure in CD spectroscopy in the absence of SDS” value ([1]; no SDS) is reported as “do not take α-helix structure in an aqueous solution solely containing an inorganic salt” and the Nucleic acid-introducing ability ([2]; luciferase plasmid 1 μg/mL, highest count of peptide 1.25, 2.5 or 5 μM, cell line not stated) is reported as 4+ (10,000,000 to less than 100,000,000). The “Gene-introducing activity after storage relative to freshly prepared complex” value (Vero cell) was “substantially equivalent”.
